# Experimental data from PMC5218472 (PLoS Biology, 2017).
# Residues, ends and D or L forms follow the SMILES beside them. *: point of attachment. X1 = CC(=O)N[C@@H]1[C@@H](O)[C@H](O[C@@H]2O[C@H](CO)[C@@H](O[C@@H]3O[C@H](CO[C@H]4O[C@H](CO)[C@@H](O)[C@H](O)[C@@H]4O[C@@H]4O[C@H](CO)[C@@H](O[C@@H]5O[C@H](CO)[C@H](O)[C@H](O)[C@H]5O)[C@H](O)[C@H]4NC(C)=O)[C@@H](O)[C@H](O[C@H]4O[C@H](CO)[C@@H](O)[C@H](O)[C@@H]4O[C@@H]4O[C@H](CO)[C@@H](O[C@@H]5O[C@H](CO)[C@H](O)[C@H](O)[C@H]5O)[C@H](O)[C@H]4NC(C)=O)[C@@H]3O)[C@H](O)[C@H]2NC(C)=O)[C@@H](CO)O[C@H]1N*; αGalNAc = CC(=O)N[C@@H]1[C@@H](O)[C@@H](O)[C@@H](CO)O[C@@H]1*
# B1: sIL-6R: recombinant soluble IL-6 receptor expressed in HEK293-EBNA cells (protein, UniProt P08887 20-365, looked up)
# extracellular domain: LAPRRCPAQEVARGVLTSLPGDSVTLTCPGVEPEDNATVHWVLRKPAAGSHPSRWAGMGRRLLLRSVQLHDSGNYSCYRAGRPAGTVHLLVDVPPEEPQLSCFRKSPLSNVVCEWGPRSTPSLTTKAVLLVRKFQNSPAEDFQEPCQYSQESQKFSCQLAVPEGDSSFYIVSMCVASSVGSKFSKTQTFQGCGILQPDPPANITVTAVARNPRWLSVTWQDPHSWNSSFYRLRFELRYRAERSKTFTTWMVKDLQHHCVIHDAWSGLRHVVQLRAQEEFGQGEWSEWSPEAMGTPWTESRSPPAENEVSTPMQALTTNKDDDNILFRDSANATSLPVQDSSSVPLP
# modifications: extracellular domain recombinant
# notes: recombinant soluble IL-6 receptor expressed in HEK293-EBNA cells
# Assays:
# [1] = In vitro cleavage assay of IL-6R (glyco)peptides with recombinant ADAM17; details: human, isolated enzyme; 50 μM peptide, 25 mM Hepes pH 9.0, recombinant catalytic domain of ADAM17, 16 h, 37°C, reverse phase C18 chromatography, peak areas; mean of 3 independent experiments; read-out: intact peptide after incubation with ADAM17 (untreated peptide = 100), mean
# Method: (§1) Fig 7 The N- and O-glycosylated sequon adjacent to the cleavage site is of minor importance for IL-6R cleavage. (A) Amino-acid sequence of the two unglycosylated peptides 1(QD) and 2(QA). Peptides were incubated either with or without recombinant ADAM17 for 16 h at 37°C, and the amount of cleaved peptide was analyzed by reversed-phase (RP) chromatography. (B) Amino-acid sequence of the two glycopeptides 3(QD) and 4(QA), which have a GlcNAc attached to the amino-acid residue corresponding to Asn-350 of the IL-6R. Cleavage was determined as described in panel (A). (C) Amino-acid sequence of the two glycopeptides 5(QD) and 6(QA), which have a biantennary N-glycan attached to the amino-acid residue corresponding to Asn-350 of the IL-6R. Cleavage was determined as described in panel (A). (D) Amino-acid sequence of the two glycopeptides 7(QD) and 8(QA), which have a GalNAc attached to the amino-acid residue corresponding toThr-352 of the IL-6R. Cleavage was determined as described in panel (A). (E) Amino-acid sequence of the two glycopeptides 9(QD) and 10(QA), which have a biantennary N-glycan attached to the amino-acid residue corresponding to Asn-350 and a GalNAc attached to the amino-acid residue corresponding toThr-352 of the IL-6R. Cleavage was determined as described in panel (A). All data shown are the mean ± SD from three independent experiments (*p < 0.05, **p < 0.01, ***p < 0.001, compared to the untreated peptide; ^§p < 0.05, compared to the cleaved nonglycosylated peptide).
# (§2) Two 1.5 ml reaction tubes were filled with 50 μl peptide (50 μM) solved in 25 mM Hepes (pH 9.0), and 0.5 μl of the recombinant catalytic domain of ADAM17 was added to one of the reaction tubes, whereas the other sample remained untreated. All samples were incubated for 16 h at 37°C. Afterwards, 1,150 μl 0.1% TFA was added to each sample, and the peptides were separated on a reverse phase chromatography column (Multo High Bio-200-C18) from Chromatographie Service (Langerwehe, Germany) using a linear gradient elution with a binary solvent system and a flow rate of 1 ml/min. Solvent A consisted of 0.1% TFA, and solvent B consisted of 100% ACN. After peak integration, peak areas for cleaved and noncleaved peptides were determined.
# [2] = target: T1, recombinant catalytic domain of ADAM17 (Homo sapiens, UniProt P78536); experiment: as above; details: 50 μM peptide, 25 mM Hepes pH 9.0, 16 h, 37°C, RP chromatography
# T1 construct: catalytic domain (aa Pro-18 to Val-477) of ADAM17; purchased Enzo Life Sciences GmbH (Lörrach, Germany)
# T1 sequence (P78536 18-477): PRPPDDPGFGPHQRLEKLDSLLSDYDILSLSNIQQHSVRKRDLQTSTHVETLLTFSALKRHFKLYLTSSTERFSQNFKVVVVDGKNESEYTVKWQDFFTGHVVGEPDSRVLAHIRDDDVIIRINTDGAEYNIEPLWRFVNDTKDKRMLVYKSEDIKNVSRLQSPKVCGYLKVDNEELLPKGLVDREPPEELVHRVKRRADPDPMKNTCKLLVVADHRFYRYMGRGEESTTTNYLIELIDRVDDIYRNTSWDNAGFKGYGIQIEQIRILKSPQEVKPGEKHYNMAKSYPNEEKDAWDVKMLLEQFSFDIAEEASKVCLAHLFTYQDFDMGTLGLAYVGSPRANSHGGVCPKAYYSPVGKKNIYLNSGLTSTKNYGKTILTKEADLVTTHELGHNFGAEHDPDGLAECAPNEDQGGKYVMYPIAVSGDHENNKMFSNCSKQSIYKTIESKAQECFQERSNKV
# Method: as §1, §2
# ADAM10 / ADAM17 [3] = experiment: PMA-induced shedding of IL-6R-5N in HEK293 cells after pretreatment with inhibitors GI or GW, ELISA (Fig 9D); format: cell-based, human; details: HEK293, IL-6R-5N; PMA stimulation, GI or GW given as pretreatment before PMA; mean of n = 3
# Method: (§3) Fig 9 An IL-6R devoid of all N-glycans is defective in ADAM17-mediated proteolysis. (A) PMA-mediated ectodomain shedding of IL-6R-5N with a stably transduced Ba/F3-gp130 cell line. Data shown are the mean ± SD from three independent experiments compared to wild-type IL-6R. (B) HEK293 cells were transiently transfected with a cDNA encoding wild-type IL-6R. Cells were pretreated with the ADAM10-specific inhibitor GI or the combined ADAM10/ADAM17-specific inhibitor GW for 30 min and then stimulated with 100 nM PMA for 2 h as indicated. The amount of sIL-6R in the cell supernatant was determined by ELISA. One out of three experiments with similar outcomes is shown (mean ± SD, n = 3). (C) The experiment was performed as described under (B), but sIL-6R was precipitated from cell supernatant and analyzed by western blot. Furthermore, the cells were lysed, and IL-6R expression in the lysates was also determined by western blot. β-actin served as loading control. […] (D, E) The experiment was performed as described in […], but HEK293 cells were transiently transfected with a cDNA encoding IL-6R-5N. nd, not detected. (F) Cell-surface expression of the IL-6R-5N variant on transiently transfected HEK293 cells analyzed via flow cytometry (black histogram). […] The expression of all proteins (input) and the interaction of the IL-6R variants with MPD17-CANDIS were analyzed via western blot. […]
# ADAM10 / ADAM17 [4] = experiment: PMA-induced shedding of wild-type IL-6R in HEK293 cells after pretreatment with inhibitors GI or GW, ELISA (Fig 9B); format: cell-based, human; details: HEK293, wild-type IL-6R; PMA stimulation, GI or GW given as pretreatment before PMA; mean of n = 3
# Method: as §3
# Ba/F3-gp130 cells = experiment: Proliferation of Ba/F3-gp130 cells with 10 ng/ml IL-6 plus recombinant sIL-6R or ds-sIL-6R (IL-6 trans-signaling), Cell Titer Blue; format: cell-based; details: 0-100 ng/ml with 10 ng/ml IL-6, 48 h
# Description: Fig 1 The majority of sIL-6R in human serum is not generated by alternative mRNA splicing. (A) Multiple sequence alignment of amino acids Met-310 to Ala-370 of the full-length human IL-6R with the sIL-6R (Met-310 to Gln-357) and amino acids Met-310 to Leu-365 of the differentially spliced sIL-6R (ds-sIL-6R). The ten unique C-terminal amino-acid residues of the […], which represent the epitope against which the antibody ds6R was raised, are colored in green. (B, C) Proliferation assay of Ba/F3-gp130 cells in response to 10 ng/ml IL-6 and increasing amounts (0–100 ng/ml) of either (B) recombinant sIL-6R or (C) recombinant ds-sIL-6R. Cell viability was assessed after 48 h. […]
# Proliferation of the different Ba/F3-gp130-IL-6R cell lines in response to IL-6 and Hyper-IL-6 and of Ba/F3-gp130 cells in response to IL-6 and the two different recombinant sIL-6R variants was determined using the Cell Titer Blue Cell viability assay reagent (Promega, Karlsruhe, Germany), following the manufacturer’s protocol as described previously. Values were measured in triplicates per experiment, and relative light units (RLU) obtained after 60 min were normalized by subtraction of control values obtained after 0 min. The maximum proliferation was set to 100%, and all other values were calculated accordingly.
Molecule,remaining at 16 h [1],"cleavage by recombinant ADAM17, in words [2]","sIL-6R in supernatant (ELISA), Figure 9D, mean (ADAM10 / ADAM17 [3])","sIL-6R in supernatant (ELISA), Figure 9B, mean (ADAM10 / ADAM17 [4])","IL-6 trans-signaling activity, in words (Ba/F3-gp130 cells)"
CC[C@H](C)[C@H](NC(=O)[C@@H](N)CC(N)=O)C(=O)N[C@@H](CC(C)C)C(=O)N[C@@H](Cc1ccccc1)C(=O)N[C@@H](CCCNC(=N)N)C(=O)N[C@@H](CC(=O)O)C(=O)N[C@@H](CO)C(=O)N[C@@H](C)C(=O)N[C@@H](CC(=O)N[C@@H]1O[C@H](CO)[C@@H](O[C@@H]2O[C@H](CO)[C@@H](O[C@@H]3O[C@H](CO[C@H]4O[C@H](CO)[C@@H](O)[C@H](O)[C@@H]4O[C@@H]4O[C@H](CO)[C@@H](O[C@@H]5O[C@H](CO)[C@H](O)[C@H](O)[C@H]5O)[C@H](O)[C@H]4NC(C)=O)[C@@H](O)[C@H](O[C@H]4O[C@H](CO)[C@@H](O)[C@H](O)[C@@H]4O[C@@H]4O[C@H](CO)[C@@H](O[C@@H]5O[C@H](CO)[C@H](O)[C@H](O)[C@H]5O)[C@H](O)[C@H]4NC(C)=O)[C@@H]3O)[C@H](O)[C@H]2NC(C)=O)[C@H](O)[C@H]1NC(C)=O)C(=O)N[C@@H](C)C(=O)N[C@H](C(=O)N[C@@H](CO)C(=O)N[C@@H](CC(C)C)C(=O)N1CCC[C@H]1C(=O)N[C@H](C(=O)N[C@@H](CCC(N)=O)C(=O)N[C@@H](CC(=O)O)C(=O)N[C@@H](CO)C(=O)N[C@@H](CO)C(=O)N[C@@H](CO)C(=O)N[C@H](C(=O)N1CCC[C@H]1C(=O)N[C@@H](CC(C)C)C(=O)N1CCC[C@H]1C(=O)O)C(C)C)C(C)C)[C@@H](C)O[C@H]1O[C@H](CO)[C@H](O)[C@H](O)[C@H]1NC(C)=O [9(QD)] (H-NILFRDSAD(X1)AT(αGalNAc)SLPVQDSSSVPLP-OH; N-terminus and C-terminus assumed),95.6%,again blocked,,,
CNC(=O)[C@@H](NC(=O)[C@H](CCCc1ccccc1)[C@H](C)N(O)C=O)C(C)(C)C [GI],,,0,48715.8,
"CCCCCCCCCCCCCC(=O)O[C@@H]1[C@@H](C)[C@@]2(O)[C@@H](C=C(CO)C[C@]3(O)C(=O)C(C)=C[C@@H]23)[C@@H]2C(C)(C)[C@]12OC(C)=O [PMA, phorbol-12-myristate-13-acetate]",,,0,71566.4,
B1,,,,,biologically active
